What all share (assay): inhibition of tumour cell growth, NCI panel, 48 h
The test system of experiment [1] is UO-31 renal.
In experiment [2] the test system is SW-620 colon.
Experiment [3] concerns A498 renal.
For experiment [4], the system named is MDA-MB-435.
Experiment [5] deals with NCI/ADR-RES ovarian.
The test system of experiment [6] is SK-MEL-2 melanoma.
Experiment [7] deals with HCC-2998 colon.
In experiment [8] the test system is TK-10 renal.
Experiment [9] concerns NCI-H522 lung.
Experiment [10] concerns HS 578T breast.

SMILES strings stand for the structures.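 Following 48 hours of exposure in 96-well plates, responses at five concentrations were used to interpolate endpoints linearly. At the TGI there is no net growth.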

Turning to `C/C=C/C=C/C1=NN(c2cccc(S(=O)(=O)O)c2)C2(C1)SCC(=O)N2c1nc2ccccc2s1` (stereo not given), the TGI in [1], in [2], in experiment [3], in experiment [4], in experiment [5] and in [6] was greater than 100 µM in each case. For the same molecule, the TGI in experiment [7], in experiment [8], in experiment [9] and in experiment [10] was greater than 100 µM each time.
For the molecule `COc1ccc(OC)c(CNc2ccc(O)c(C(=O)NCCc3ccc(F)cc3)c2)c1`, the TGI in experiment [1] was 24.8 µM; in experiment [2] it was greater than 100 µM; in experiment [3], 59.9 µM; in experiment [4], 8.34 µM; in experiment [5] it was greater than 100 µM; in experiment [6], 26.4 µM. Moreover, the TGI is 8.98 µM in experiment [7], 94.9 µM in experiment [8], 7.56 µM in experiment [9] and greater than 100 µM in experiment [10].
`Cc1cc(NC2=NCCO2)c2c(c1C)CCCC2`: the TGI in experiment [1] is 30.7 µM; in experiment [2], greater than 100 µM; in [3] it was 49.8 µM; in experiment [4], 39.5 µM; in experiment [5], 73.1 µM; in experiment [7] it was 29 µM. The TGI in [8] and in experiment [10] was greater than 100 µM each time.
In the case of `Cc1ccc(S(=O)(=O)n2cc(-c3cnc(N)c(Br)n3)c3ccccc32)cc1`, the TGI was greater than 100 µM in experiment [1]; greater than 100 µM in experiment [2]; greater than 24.8 µM in experiment [3]; 0.588 µM in [4]; greater than 25.7 µM in experiment [5]; greater than 100 µM in experiment [6]. Further, the values for the TGI in [7], in [8] and in experiment [10] were greater than 100 µM, greater than 100 µM and 2.97 µM, respectively.
Regarding `CC(=O)NC1C(OCc2ccccc2)OC(CO)C(O)C1OCC(=O)NC(C)C(=O)NC(CCC(=O)NCCCCCC(=O)Nc1ccc2c(c1)CN1C(=O)c3ccccc3C1=N2)C(N)=O` (stereo not given), the TGI in experiment [1], in [2], in [3], in [4], in experiment [5] and in experiment [6] was greater than 100 µM each time. Further, the TGI in experiment [7], in [8] and in [10] was greater than 100 µM each time.
`O=C(NCCO)c1c(O)c2ccccc2[nH]c1=O`: the TGI in [1], in experiment [2], in experiment [3], in [4], in experiment [5] and in [7] was greater than 100 µM each time. Also, the TGI in experiment [8], in [9] and in [10] was greater than 100 µM throughout.
Regarding `COC(=O)C[C@H](COCc1ccccc1)NC(=O)C[C@H](COCc1ccccc1)NC(=O)C[C@H](COCc1ccccc1)NC(=O)OC(C)(C)C`, the TGI in experiment [1] was greater than 100 µM; in experiment [2], greater than 100 µM; in experiment [3], 67.1 µM; in experiment [4], greater than 100 µM; in experiment [5] it was greater than 100 µM; in experiment [6] it was greater than 100 µM. In addition, the TGI in experiment [9] and in experiment [10] was greater than 100 µM each time.
As for `CCOC(OCC)C(CCc1ccccc1)c1c(N)nc(N)[nH]c1=O` (stereo not given), the TGI in [1], in experiment [2], in experiment [3], in [4], in experiment [5] and in experiment [6] was greater than 100 µM in each case. Also, the TGI in experiment [7], in experiment [8] and in [10] was greater than 100 µM in each case.
For `C=C(C)CC1=C(C(=S)NCCO[Si](C)(C)C(C)(C)C)C(OCC)(OCC)C1=O`, the TGI was 35.9 µM in experiment [1]; 47 µM in [2]; 40.5 µM in experiment [3]; 41.9 µM in experiment [4]; greater than 100 µM in experiment [5]; 34.4 µM in [6]. Also, the TGI in [8] was 34.8 µM; in [9], 29 µM; in experiment [10], greater than 100 µM.
With `c1ccc(C(=NNc2nc3ccccc3[nH]2)c2ccccn2)nc1`, the TGI in experiment [1] was 1.78 µM; in [2] it was greater than 100 µM; in [3], 4.94 µM; in [4], greater than 74 µM; in experiment [5], 0.583 µM; in experiment [6], greater than 100 µM. Also, the values for the TGI in experiment [7], in [9] and in [10] were 28.6 µM, 0.089 µM and greater than 100 µM, respectively.
Consider `O=C1c2ccccc2C2(c3ccc(Cl)cc3)NCc3ccccc3CN12` (stereo not given), for which the TGI in experiment [1] is 78.1 µM; in experiment [2], greater than 100 µM; in experiment [3] it was 42.8 µM; in experiment [4], greater than 100 µM; in experiment [5] it was 29.9 µM; in experiment [6], 29.5 µM. Also, the TGI is 45.6 µM in [7], greater than 100 µM in [8] and 56.7 µM in experiment [10].
Consider `CC(=O)c1ccc2c(c1)oc(=O)n2CCN(C)C`, for which the TGI in experiment [2], in experiment [3], in [4], in experiment [5], in experiment [6] and in experiment [8] was greater than 100 µM in each case. For the same molecule, the TGI in [10] was greater than 100 µM.
As for `COc1ccc(N2CCN(c3ccc4c(c3)NCC(=O)N4)CC2)cc1`, the TGI in experiment [1] was 70.4 µM; in [2], greater than 100 µM; in experiment [4], greater than 100 µM; in [5], 68.5 µM; in [6], 69.6 µM; in experiment [7], greater than 100 µM. Also, the values for the TGI in experiment [8], in experiment [9] and in experiment [10] were greater than 100 µM, 30.8 µM and 67.1 µM, respectively.
`O=C1Nc2ccccc2NC1C1OC(c2ccccc2)=CC1=O` (stereo not given): the TGI in experiment [1], in experiment [2], in experiment [3], in [4], in experiment [5] and in experiment [6] was greater than 100 µM in each case. Also, the TGI in [7], in [8] and in experiment [10] was greater than 100 µM in each case.
For `Clc1ccc(OCC2NC3C=CC32)cn1` (stereo not given), the TGI in [1], in experiment [2], in experiment [4], in experiment [5], in [6] and in experiment [7] was greater than 100 µM each time. In addition, the TGI in experiment [8], in experiment [9] and in experiment [10] was greater than 100 µM throughout.
Take `O=C1C=CC2(O[C@@H](Cc3ccccc3)[C@H](Cc3ccccc3)O2)C(SC(=O)c2ccccc2)C1` (stereo not given in full): the TGI in experiment [1] stood at 1.87 µM; in experiment [2], 0.858 µM; in experiment [3], 16.2 µM; in experiment [4] it was 5.46 µM; in experiment [5], 4.06 µM; in experiment [6], 3.46 µM. For the same molecule, the TGI in experiment [8] came out at 4.09 µM; in experiment [10] it was 4.57 µM.
Regarding `[N-]=[N+]=C1CNC(=O)NC1=O`, the TGI in experiment [1], in experiment [2], in experiment [4], in experiment [5], in experiment [6] and in experiment [7] was greater than 100 µM each time. Further, the TGI in experiment [8], in experiment [9] and in experiment [10] was greater than 100 µM each time.
For `COC(=O)c1ccc(C)cc1C1CN=NC12Cc1cc(C)c(C)cc1C2=O` (stereo not given), the TGI in [1] is greater than 100 µM; in experiment [2], greater than 100 µM; in experiment [3] it was greater than 100 µM; in experiment [4], 96.6 µM; in [5], greater than 100 µM; in [7], 81.7 µM. Also, the figures for the TGI in [8], in experiment [9] and in experiment [10] were greater than 100 µM, 78.4 µM and greater than 100 µM, respectively.
As for `O=C1c2ccccc2C(=O)N1C(=S)c1ccccc1`, the TGI in experiment [1], in [2], in experiment [4], in experiment [5], in experiment [6] and in [7] was greater than 100 µM in each case. Moreover, the TGI in [8], in [9] and in [10] was greater than 100 µM in each case.
Regarding `CC1(C)Oc2ccc(Cl)cc2C12CC2`, the TGI in experiment [1] was 30.8 µM; in [2] it was 30.9 µM; in [3], 29.9 µM; in [4], 32.6 µM; in [5] it was 44 µM; in [6], 33.4 µM. Also, the TGI in experiment [7] came to 30.6 µM; in experiment [8] it was 40.7 µM; in experiment [10], 44.8 µM.
As for `CC(O)(c1ccccc1)c1nccc2ccccc12` (stereo not given), the TGI is greater than 100 µM in experiment [1]; greater than 100 µM in experiment [2]; greater than 100 µM in experiment [3]; 39.2 µM in experiment [4]; greater than 100 µM in experiment [5]; greater than 100 µM in [7]. The TGI in experiment [8], in [9] and in experiment [10] was greater than 100 µM throughout.
For the molecule `COC(=O)C1(NC(=O)C(N)CC(=O)O)C(C)C1C` (stereo not given), the TGI in [1], in experiment [2], in experiment [3], in [4], in experiment [5] and in [6] was greater than 100 µM in each case. In addition, the TGI in experiment [8], in experiment [9] and in experiment [10] was greater than 100 µM in each case.

For the origin of these results see PubChem BioAssay (NCI).
